Laboratory results as given in patent US20260234660A1, “TREATMENT OF MUSCLE RELATED DISORDERS WITH ANTI-HUMAN CACNG1 ANTIBODIES” (Regeneron Pharmaceuticals, Inc., priority 2023, published 2026).
Counter-ions that a name gives are not always drawn.

System: human myotubes
Assay: Acetylcholine-induced calcium flux assay in human myotubes (FLIPR)
Assay type: cell-based
Conditions: 20 μM nicardipine, positive control for calcium blocking
Protocol: CACNG1 is the γ1 subunit of the skeletal muscle specific L-type calcium channel, (dihydropyridine receptor), though genetic deletion of CACNG1 appears to have no major impact on skeletal muscle function. To determine whether antibodies that bind CACNG1 impact muscle function, a calcium flux assay was performed on human myotubes that were incubated with CACNG1 antibodies to determine whether these antibodies affect acetylcholine-induced calcium release.
Human skeletal myoblasts (Cook Myosite, Inc.) were plated at 10,000 cells/well of a 96-well plate and were differentiated for 7 days into myotubes. On the final day of differentiation, media was replaced with 50 μL of FLIPR calcium 5 dye with probenecid (Invitrogen) and 50 uL of assay buffer (0.1% BSA-DMEM) per well. CACNG1 and isotype control antibodies were serial diluted in assay buffer and added to the cells and incubated at 37° C. in a 5% CO2 incubator for 1 hour prior to the calcium flux assay. Nicardipine hydrochloride (Sigma) was added to untreated wells to serve as a control for calcium channel blockade. After 1 hour, acetylcholine (Sigma) was added at a 20 uM final concentration to induce myotube calcium release, and plates were assayed on a FLIPR Tetra (Molecular Devices, LLC).

COC(=O)C1=C(C)NC(C)=C(C(=O)OCCN(C)Cc2ccccc2)C1c1cccc([N+](=O)[O-])c1 (stereo not shown) [nicardipine, Nicardipine hydrochloride, reference compound]
effect on human myotube calcium release: substantially reduced human myotube calcium release
